Results: patent US20100292266A1, “Oxazolyl Piperidine Modulators of Fatty Acid Amide Hydrolase” (priority 2006, published 2010)

How the values were obtained:
FAAH = target: T1, FAAH (Homo sapiens, UniProt O00519); experiment: Assay Method 1: FAAH assay, 3H-anandamide hydrolysis in cell homogenate; type: biochemical; design: expressed in transfected cells; settings: T84 or transfected SK-N-MC cell homogenate, 80 nM 3H-AEA, 1 h rt, > = solubility limit or highest concentration tested
T1 sequence (O00519 1-579): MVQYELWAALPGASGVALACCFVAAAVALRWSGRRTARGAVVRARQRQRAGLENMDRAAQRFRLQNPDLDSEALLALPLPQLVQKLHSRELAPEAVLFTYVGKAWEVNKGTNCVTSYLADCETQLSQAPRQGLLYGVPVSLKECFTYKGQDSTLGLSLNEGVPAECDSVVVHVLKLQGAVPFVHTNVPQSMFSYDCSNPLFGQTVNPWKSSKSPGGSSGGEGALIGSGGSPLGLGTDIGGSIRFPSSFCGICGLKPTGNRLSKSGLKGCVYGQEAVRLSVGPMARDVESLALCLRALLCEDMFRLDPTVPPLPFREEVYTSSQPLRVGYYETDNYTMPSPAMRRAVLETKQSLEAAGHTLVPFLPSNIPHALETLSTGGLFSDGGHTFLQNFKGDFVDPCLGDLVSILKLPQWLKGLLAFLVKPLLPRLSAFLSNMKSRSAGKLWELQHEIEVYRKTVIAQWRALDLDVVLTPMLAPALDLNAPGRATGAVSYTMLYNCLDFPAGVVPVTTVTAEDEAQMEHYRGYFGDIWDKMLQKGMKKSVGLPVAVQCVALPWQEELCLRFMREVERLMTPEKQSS
Method: A. Transfection of Cells with Human FAAH
(§1) A 10-cm tissue culture dish with a confluent monolayer of SK-N-MC cells was split 2 days (d) prior to transfection. Using sterile technique, the media was removed and the cells were detached from the dish by the addition of trypsin. One fifth of the cells were then placed onto a new 10-cm dish. Cells were grown in a 37° C. incubator with 5% CO2 in Minimal Essential Media Eagle with 10% Fetal Bovine Serum. After 2 d, cells were approximately 80% confluent. These cells were removed from the dish with trypsin and pelleted in a clinical centrifuge. The pellet was re-suspended in 400 μL complete media and transferred to an electroporation cuvette with a 0.4 cm gap between the electrodes. Supercoiled human FAAH cDNA (1 μg) was added to the cells and mixed. The voltage for the electroporation was set at 0.25 kV, and the capacitance was set at 960 μF. After electroporation, the cells were diluted into complete media (10 mL) and plated onto four 10-cm dishes. Because of the variability in the efficiency of electroporation, four different concentrations of cells were plated. The ratios used were 1:20, 1:10, and 1:5, with the remainder of the cells being added to the fourth dish. The cells were allowed to recover for 24 h before adding the selection media (complete media with 600 μg/mL G418). After 10 d, dishes were analyzed for surviving colonies of cells. Dishes with well-isolated colonies were used. Cells from individual colonies were isolated and tested.
(§2) The assay mixture consisted of 50 μL of the cell homogenate, 10 μL of the test compound, and 40 μL of anandamide [1-^3H-ethanolamine] (^3H-AEA, Perkin-Elmer, 10.3 Ci/mmol), which was added last, for a final tracer concentration of 80 nM. The reaction mixture was incubated at rt for 1 h. During the incubation, 96-well Multiscreen filter plates (catalog number MAFCNOB50; Millipore, Bedford, Mass., USA) were loaded with 25 μL of activated charcoal (Multiscreen column loader, catalog number MACL09625, Millipore) and washed once with 100 μL of MeOH. Also during the incubation, 96-well DYNEX MicroLite plates (catalog number NL510410) were loaded with 100 μL of MicroScint40 (catalog number 6013641, Packard Bioscience, Meriden, Conn., USA). After the 1 h incubation, 60 μL of the reaction mixture were transferred to the charcoal plates, which were then assembled on top of the DYNEX plates using Centrifuge Alignment Frames (catalog number MACF09604, Millipore). The unbound labeled ethanolamine was centrifuged through to the bottom plate (5 min at 2000 rpm), which was preloaded with the scintillant, as described above. The plates were sealed and left at rt for 1 h before counting on a Hewlett Packard TopCount.
(§3) Where activity is shown as greater than (>) a particular value, the value is the solubility limit of the compound in the assay medium or the highest concentration tested in the assay.

Rat FAAH = target: T2, Rat FAAH (Rattus norvegicus, UniProt P97612); experiment: Assay Method 2: FAAH assay, 3H-anandamide hydrolysis in cell homogenate; type: biochemical; settings: transfected SK-N-MC cell homogenate, 80 nM 3H-AEA, 1 h rt, > = solubility limit or highest concentration tested
T2 construct: expressed in transfected cells
T2 sequence (P97612 1-579): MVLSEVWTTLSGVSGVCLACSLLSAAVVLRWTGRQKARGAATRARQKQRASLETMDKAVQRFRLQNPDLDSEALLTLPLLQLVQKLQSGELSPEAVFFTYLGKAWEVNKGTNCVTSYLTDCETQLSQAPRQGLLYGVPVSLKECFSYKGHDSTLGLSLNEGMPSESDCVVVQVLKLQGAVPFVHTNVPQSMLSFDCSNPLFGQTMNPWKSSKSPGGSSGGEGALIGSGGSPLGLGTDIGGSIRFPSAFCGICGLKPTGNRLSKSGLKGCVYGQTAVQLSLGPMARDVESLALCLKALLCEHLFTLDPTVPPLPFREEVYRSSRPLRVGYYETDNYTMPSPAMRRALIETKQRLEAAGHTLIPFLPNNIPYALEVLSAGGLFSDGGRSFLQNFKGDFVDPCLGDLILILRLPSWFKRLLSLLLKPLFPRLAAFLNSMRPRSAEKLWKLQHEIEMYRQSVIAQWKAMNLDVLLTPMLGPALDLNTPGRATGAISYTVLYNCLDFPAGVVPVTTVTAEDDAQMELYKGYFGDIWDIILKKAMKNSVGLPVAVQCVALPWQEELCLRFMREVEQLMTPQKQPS
Method: A. Transfection of Cells with Rat FAAH
as §1, with “rat” for “human”
as §2, with “incubated at […] for 1” for “incubated at rt for 1”, “labeled ethanolamine . was centrifuged” for “labeled ethanolamine was centrifuged”
as §3

Row | IC50 (FAAH) [nM] | IC50 (Rat FAAH) [nM] | SMILES
1 | 309 | 1750 | O=C(c1ncco1)C1CCN(Cc2ccc3cccnc3n2)CC1 [Example 41, (1-[1,8]Naphthyridin-2-ylmethyl-piperidin-4-yl)-oxazol-2-yl-methanone]
2 | 519 | > 10000 | O=C(c1ncco1)C1CCN(Cc2ccc3[nH]ccc3c2)CC1 [Example 42]
3 | 3000 | 6000 | COc1ccc(CN2CCC(C(=O)c3ncco3)CC2)cc1OC [Example 43, [1-(3,4-Dimethoxy-benzyl)-piperidin-4-yl]-oxazol-2-yl-methanone]
4 | 5 | 5 | O=C(c1ncco1)C1CCN(Cc2ccc(Cl)c(Cl)c2)CC1 [Example 44, [1-(3,4-Dichloro-benzyl)-piperidin-4-yl]-oxazol-2-yl-methanone]
5 | 212 | 1600 | O=C(c1ncco1)C1CCN(Cc2ccc3cc[nH]c3c2)CC1 [Example 45, [1-(1H-Indol-6-ylmethyl)-piperidin-4-yl]-oxazol-2-yl-methanone]
6 | 260 | 219 | COc1ccc2cc(CN3CCC(C(=O)c4ncco4)CC3)ccc2c1 [Example 46, [1-(6-Methoxy-naphthalen-2-ylmethyl)-piperidin-4-yl]-oxazol-2-yl-methanone]
7 | 4 | 7 | O=C(c1ncco1)C1CCN(Cc2ccc3ccccc3c2O)CC1 [Example 47, [1-(1-Hydroxy-naphthalen-2-ylmethyl)-piperidin-4-yl]-oxazol-2-yl-methanone]
8 | 101 | 63 | O=C(c1ncco1)C1CCN(Cc2cccc3ccccc23)CC1 [Example 48, (1-Naphthalen-1-ylmethyl-piperidin-4-yl)-oxazol-2-yl-methanone]
9 | 37 | 91 | Cn1c(CN2CCC(C(=O)c3ncco3)CC2)nc2ccccc21 [Example 49, [1-(1-Methyl-1H-benzoimidazol-2-ylmethyl)-piperidin-4-yl]-oxazol-2-yl-methanone]
10 | 4 | 8 | Cn1c(CN2CCC(C(=O)c3ncco3)CC2)cc2ccccc21 [Example 50, [1-(1-Methyl-1H-indol-2-ylmethyl)-piperidin-4-yl]-oxazol-2-yl-methanone]
11 | 12 | 33 | O=C(c1ncco1)C1CCN(Cc2ccc(Br)cc2)CC1 [Example 51, [1-(4-Bromo-benzyl)-piperidin-4-yl]-oxazol-2-yl-methanone]
12 | 35 | 200 | O=C(c1ncco1)C1CCN(Cc2cccc(Br)c2)CC1 [Example 52, [1-(3-Bromo-benzyl)-piperidin-4-yl]-oxazol-2-yl-methanone]
13 | 85 | 320 | O=C(c1ncco1)C1CCN(Cc2ccccc2Br)CC1 [Example 53, [1-(2-Bromo-benzyl)-piperidin-4-yl]-oxazol-2-yl-methanone]
14 | 12 | 105 | O=C(c1ncco1)C1CCN(Cc2cc3ccccc3o2)CC1 [Example 55, (1-Benzofuran-2-ylmethyl-piperidin-4-yl)-oxazol-2-yl-methanone]
15 | 28 | 132 | O=C(c1ncco1)C1CCN(Cc2cccc(Oc3ccccc3)c2)CC1 [Example 56, Oxazol-2-yl-[1-(3-phenoxy-benzyl)-piperidin-4-yl]-methanone]
16 | 210 | 532 | O=C(c1ncco1)C1CCN(Cc2ccc(Oc3ccccc3)cc2)CC1 [Example 57, Oxazol-2-yl-[1-(4-phenoxy-benzyl)-piperidin-4-yl]-methanone]
17 | 1300 | > 10000 | O=C(c1ncco1)C1CCN(Cc2ccccn2)CC1 [Example 60, Oxazol-2-yl-(1-pyridin-2-ylmethyl-piperidin-4-yl)-methanone]
18 | 208 | 1200 | COc1ccc(CN2CCC(C(=O)c3ncco3)CC2)cc1 [Example 61, [1-(4-Methoxy-benzyl)-piperidin-4-yl]-oxazol-2-yl-methanone]
19 | 244 | 1300 | COc1cccc(CN2CCC(C(=O)c3ncco3)CC2)c1 [Example 62, [1-(3-Methoxy-benzyl)-piperidin-4-yl]-oxazol-2-yl-methanone]
20 | 112 | 484 | Cc1ccc(CN2CCC(C(=O)c3ncco3)CC2)cc1 [Example 64, [1-(4-Methyl-benzyl)-piperidin-4-yl]-oxazol-2-yl-methanone]

Row | SMILES | IC50 (FAAH) [nM] | IC50 (Rat FAAH) [nM]
21 | O=C(c1ncco1)C1CCN(Cc2cc3ccccc3s2)CC1 [Example 54, (1-Benzo[b]thoiphen-2-ylmethyl-piperidin-4-yl)-oxazol-2-yl-methanone] | 2 | 9
